The record followed here is paper PMC7613998, “Development of selective inhibitors of phosphatidylinositol 3-kinase C2α” (Nature Chemical Biology, 2022).

Common to all, as to assay: biochemical
Design in all cases: SelectScreen Adapta purified lipid kinase panel, 1 uM compound, 10 uM ATP, per cent inhibition
Holding throughout (details): ATP=10; Technology=Adapta; 10 uM ATP

One assay addresses PI4K2B (PI4K2 beta) (Homo sapiens, UniProt Q8TCG2). Here is the method: (§1) As PI3KC2α is related to other PI3Ks and to PI3K-like protein kinases such as mTOR, the selectivity of PITCOINs was determined in a panel of biochemical assays. […] Finally, the high specificity of PITCOINs for PI3KC2α was verified by Kinobead profiling experiments. In this approach, the ability of PITCOINs to compete the affinity capture of cellular kinases on immobilized nonselective kinase inhibitors (Kinobeads) is analyzed by mass spectrometry (MS)[31]. […] Four nonkinase weak off-targets were globally found for the three inhibitors with only FECH[32] common to the three PITCOINs (Supplementary Dataset).  Extended Data Fig. 2 Lipid kinase inhibitor profile of PITCOIN1-3. (a–c) Selectivity profiling of PITCOIN1-3 (1 µM) with purified lipid kinases in the presence of 10 µM ATP. […] Data are presented as mean ± SD from two independent experiments. (d, e) IC50 measurements of PITCOIN1-3 against purified recombinant class I PI3K p110α/p85α (d) or purified class III PI3K VPS34 complex II (e). 10 µM ATP and 20 µM PIP3 (for p110α/p85α) or 200 µM PI (for VPS34 complex II) were used as substrates. […] Data are presented as mean ± SD from two independent experiments. Source data

The next assay addresses PI4KA (PI4K alpha) (Homo sapiens, UniProt P42356). The protocol: as §1
The next assay addresses PIK3C3 (hVPS34) (Homo sapiens, UniProt Q8NEB9). The protocol:
as §1

Assay [1] addresses PIK3CA E542K/PIK3R1 (p110 alpha E542K/p85 alpha) (Homo sapiens, UniProt P42336, E542K). The protocol:
as §1

Assay [2] deals with PIK3CA E545K/PIK3R1 (p110 alpha E545K/p85 alpha) (Homo sapiens, UniProt P42336, E545K). Here is the method: as §1
Assay [3] addresses PIK3CA/PIK3R1 (p110 alpha/p85 alpha) (Homo sapiens, UniProt P42336). The protocol:
as §1

In assay [4] the target is PIK3CA/PIK3R3 (p110 alpha/p55 gamma) (Homo sapiens, UniProt P42336). The protocol: as §1
In a further assay the target is PIK3CG (p110 gamma) (Homo sapiens, UniProt P48736). The protocol:
as §1

Another assay deals with T1, PIP4K2A (Homo sapiens, UniProt P48426).
T1 sequence (P48426 1-406): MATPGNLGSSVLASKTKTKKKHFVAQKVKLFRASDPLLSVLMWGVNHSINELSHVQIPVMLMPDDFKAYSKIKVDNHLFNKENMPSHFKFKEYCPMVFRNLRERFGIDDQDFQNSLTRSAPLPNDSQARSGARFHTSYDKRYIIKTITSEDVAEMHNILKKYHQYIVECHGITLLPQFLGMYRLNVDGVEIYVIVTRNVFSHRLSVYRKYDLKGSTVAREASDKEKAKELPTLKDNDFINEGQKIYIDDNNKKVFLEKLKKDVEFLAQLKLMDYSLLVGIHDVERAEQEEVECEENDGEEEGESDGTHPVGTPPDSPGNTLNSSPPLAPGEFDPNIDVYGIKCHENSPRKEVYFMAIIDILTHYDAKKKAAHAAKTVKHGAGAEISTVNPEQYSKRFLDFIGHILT
The protocol:
as §1

The target of another assay is PIP5K1A (Homo sapiens, UniProt Q99755). The protocol:
as §1

A further assay addresses PIP5K1C (Homo sapiens, UniProt O60331). Here is the method:
as §1

The next assay concerns the target T2, SPHK2 (Homo sapiens, UniProt Q9NRA0).
T2 sequence (Q9NRA0 1-654): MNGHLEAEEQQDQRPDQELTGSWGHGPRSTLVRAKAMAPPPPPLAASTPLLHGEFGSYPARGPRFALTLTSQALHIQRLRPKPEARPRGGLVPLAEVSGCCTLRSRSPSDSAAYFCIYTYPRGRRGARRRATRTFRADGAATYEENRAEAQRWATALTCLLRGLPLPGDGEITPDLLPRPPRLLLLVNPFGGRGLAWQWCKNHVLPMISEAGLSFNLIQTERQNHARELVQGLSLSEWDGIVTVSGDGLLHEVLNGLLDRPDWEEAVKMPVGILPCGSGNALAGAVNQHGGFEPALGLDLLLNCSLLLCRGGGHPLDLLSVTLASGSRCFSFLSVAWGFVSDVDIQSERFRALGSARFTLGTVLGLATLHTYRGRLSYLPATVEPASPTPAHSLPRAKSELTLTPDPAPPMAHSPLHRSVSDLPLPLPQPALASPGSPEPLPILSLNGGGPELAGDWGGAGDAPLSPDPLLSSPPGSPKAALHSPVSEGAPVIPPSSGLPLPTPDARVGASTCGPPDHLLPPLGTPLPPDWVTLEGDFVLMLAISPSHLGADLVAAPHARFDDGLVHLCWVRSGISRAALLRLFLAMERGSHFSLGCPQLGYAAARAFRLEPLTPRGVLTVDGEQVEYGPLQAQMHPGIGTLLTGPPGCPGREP
The protocol: as §1

Chain of PIK3CA E545K/PIK3R1 (p110 alpha E545K/p85 alpha) (P42336 whole entry E545K): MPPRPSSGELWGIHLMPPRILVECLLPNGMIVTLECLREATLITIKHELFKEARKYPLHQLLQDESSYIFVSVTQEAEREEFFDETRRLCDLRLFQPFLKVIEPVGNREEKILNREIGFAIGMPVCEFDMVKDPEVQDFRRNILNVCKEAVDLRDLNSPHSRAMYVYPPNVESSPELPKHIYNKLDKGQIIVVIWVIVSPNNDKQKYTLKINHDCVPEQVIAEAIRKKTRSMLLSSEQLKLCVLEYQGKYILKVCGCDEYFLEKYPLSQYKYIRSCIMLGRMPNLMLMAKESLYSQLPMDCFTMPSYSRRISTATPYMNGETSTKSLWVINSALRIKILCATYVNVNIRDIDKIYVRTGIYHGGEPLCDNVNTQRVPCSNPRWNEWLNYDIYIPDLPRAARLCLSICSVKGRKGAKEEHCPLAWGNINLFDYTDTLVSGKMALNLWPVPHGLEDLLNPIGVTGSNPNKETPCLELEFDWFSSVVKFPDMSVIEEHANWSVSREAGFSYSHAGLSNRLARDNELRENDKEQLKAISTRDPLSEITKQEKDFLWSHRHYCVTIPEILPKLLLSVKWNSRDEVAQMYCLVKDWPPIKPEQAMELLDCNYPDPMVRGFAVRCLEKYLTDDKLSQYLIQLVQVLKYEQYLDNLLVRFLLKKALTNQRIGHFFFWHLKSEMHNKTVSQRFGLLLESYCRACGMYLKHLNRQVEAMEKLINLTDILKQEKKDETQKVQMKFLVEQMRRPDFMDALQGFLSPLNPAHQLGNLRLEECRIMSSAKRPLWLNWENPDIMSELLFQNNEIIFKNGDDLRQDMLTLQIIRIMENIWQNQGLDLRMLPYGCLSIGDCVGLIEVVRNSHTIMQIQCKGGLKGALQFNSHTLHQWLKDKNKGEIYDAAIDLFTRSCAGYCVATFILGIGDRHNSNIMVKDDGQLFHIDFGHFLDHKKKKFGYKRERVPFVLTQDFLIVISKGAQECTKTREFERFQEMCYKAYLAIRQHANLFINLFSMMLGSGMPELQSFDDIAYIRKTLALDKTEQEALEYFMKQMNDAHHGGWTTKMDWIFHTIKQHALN
Chain of PIK3CA E545K/PIK3R1 (p110 alpha E545K/p85 alpha) (P27986 whole entry partner): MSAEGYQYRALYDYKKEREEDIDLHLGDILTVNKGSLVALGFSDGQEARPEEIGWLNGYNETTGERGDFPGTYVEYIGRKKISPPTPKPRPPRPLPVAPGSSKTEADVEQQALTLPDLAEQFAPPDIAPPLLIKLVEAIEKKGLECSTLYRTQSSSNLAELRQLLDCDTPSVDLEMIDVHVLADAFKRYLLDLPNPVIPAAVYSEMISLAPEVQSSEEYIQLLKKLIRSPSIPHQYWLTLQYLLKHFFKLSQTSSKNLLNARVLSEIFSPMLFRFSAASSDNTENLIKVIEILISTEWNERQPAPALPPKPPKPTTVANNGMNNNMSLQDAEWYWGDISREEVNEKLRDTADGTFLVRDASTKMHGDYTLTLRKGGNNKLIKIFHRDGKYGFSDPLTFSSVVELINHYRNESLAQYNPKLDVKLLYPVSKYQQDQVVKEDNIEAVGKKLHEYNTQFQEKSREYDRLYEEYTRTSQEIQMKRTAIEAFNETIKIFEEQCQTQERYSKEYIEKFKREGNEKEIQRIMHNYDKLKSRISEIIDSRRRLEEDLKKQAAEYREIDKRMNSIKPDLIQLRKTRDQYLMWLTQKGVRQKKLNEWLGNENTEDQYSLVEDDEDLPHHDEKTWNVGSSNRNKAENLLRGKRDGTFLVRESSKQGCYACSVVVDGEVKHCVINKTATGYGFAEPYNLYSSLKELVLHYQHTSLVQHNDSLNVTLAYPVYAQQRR
Chain of PIK3CA/PIK3R3 (p110 alpha/p55 gamma) (P42336 whole entry): as the sequence (P42336 whole entry E545K) above, with K545E counted along it
Chain of PIK3CA/PIK3R1 (p110 alpha/p85 alpha) (P42336 whole entry): as the sequence (P42336 whole entry E545K) above, with K545E counted along it
Chain of PIK3CA/PIK3R1 (p110 alpha/p85 alpha) (P27986 whole entry partner): as the sequence (P27986 whole entry partner) above
Chain of PIK3CG (p110 gamma) (P48736 whole entry): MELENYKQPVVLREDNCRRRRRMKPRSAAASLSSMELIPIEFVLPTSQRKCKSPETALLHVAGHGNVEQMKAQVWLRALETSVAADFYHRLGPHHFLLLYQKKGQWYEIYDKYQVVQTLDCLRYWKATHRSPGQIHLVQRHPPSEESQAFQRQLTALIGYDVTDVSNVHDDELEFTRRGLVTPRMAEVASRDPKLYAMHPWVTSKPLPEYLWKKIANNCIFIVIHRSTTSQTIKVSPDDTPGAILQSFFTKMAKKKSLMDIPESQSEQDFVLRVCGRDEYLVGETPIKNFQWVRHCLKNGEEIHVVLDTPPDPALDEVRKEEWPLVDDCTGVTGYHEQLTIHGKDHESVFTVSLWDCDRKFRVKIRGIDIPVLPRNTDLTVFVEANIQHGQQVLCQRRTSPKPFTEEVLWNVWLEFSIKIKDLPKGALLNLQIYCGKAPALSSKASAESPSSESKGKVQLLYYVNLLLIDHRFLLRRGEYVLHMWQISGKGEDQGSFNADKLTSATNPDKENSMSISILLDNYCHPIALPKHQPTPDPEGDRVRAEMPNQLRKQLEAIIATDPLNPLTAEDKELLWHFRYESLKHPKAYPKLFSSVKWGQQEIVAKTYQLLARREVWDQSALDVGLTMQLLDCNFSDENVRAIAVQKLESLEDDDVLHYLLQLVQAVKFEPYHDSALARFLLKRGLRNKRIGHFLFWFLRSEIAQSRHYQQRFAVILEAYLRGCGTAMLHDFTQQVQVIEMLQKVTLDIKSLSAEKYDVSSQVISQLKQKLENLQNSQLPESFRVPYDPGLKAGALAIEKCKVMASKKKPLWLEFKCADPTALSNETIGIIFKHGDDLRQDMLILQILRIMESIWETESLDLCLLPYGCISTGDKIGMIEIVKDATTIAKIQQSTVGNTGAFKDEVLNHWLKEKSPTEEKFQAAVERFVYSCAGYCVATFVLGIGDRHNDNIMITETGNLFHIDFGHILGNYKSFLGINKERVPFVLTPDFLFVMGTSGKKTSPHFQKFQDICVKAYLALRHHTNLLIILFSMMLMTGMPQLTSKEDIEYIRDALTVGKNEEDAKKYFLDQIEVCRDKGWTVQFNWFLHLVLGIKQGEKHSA
Chain of PIK3C3 (hVPS34) (Q8NEB9 whole entry): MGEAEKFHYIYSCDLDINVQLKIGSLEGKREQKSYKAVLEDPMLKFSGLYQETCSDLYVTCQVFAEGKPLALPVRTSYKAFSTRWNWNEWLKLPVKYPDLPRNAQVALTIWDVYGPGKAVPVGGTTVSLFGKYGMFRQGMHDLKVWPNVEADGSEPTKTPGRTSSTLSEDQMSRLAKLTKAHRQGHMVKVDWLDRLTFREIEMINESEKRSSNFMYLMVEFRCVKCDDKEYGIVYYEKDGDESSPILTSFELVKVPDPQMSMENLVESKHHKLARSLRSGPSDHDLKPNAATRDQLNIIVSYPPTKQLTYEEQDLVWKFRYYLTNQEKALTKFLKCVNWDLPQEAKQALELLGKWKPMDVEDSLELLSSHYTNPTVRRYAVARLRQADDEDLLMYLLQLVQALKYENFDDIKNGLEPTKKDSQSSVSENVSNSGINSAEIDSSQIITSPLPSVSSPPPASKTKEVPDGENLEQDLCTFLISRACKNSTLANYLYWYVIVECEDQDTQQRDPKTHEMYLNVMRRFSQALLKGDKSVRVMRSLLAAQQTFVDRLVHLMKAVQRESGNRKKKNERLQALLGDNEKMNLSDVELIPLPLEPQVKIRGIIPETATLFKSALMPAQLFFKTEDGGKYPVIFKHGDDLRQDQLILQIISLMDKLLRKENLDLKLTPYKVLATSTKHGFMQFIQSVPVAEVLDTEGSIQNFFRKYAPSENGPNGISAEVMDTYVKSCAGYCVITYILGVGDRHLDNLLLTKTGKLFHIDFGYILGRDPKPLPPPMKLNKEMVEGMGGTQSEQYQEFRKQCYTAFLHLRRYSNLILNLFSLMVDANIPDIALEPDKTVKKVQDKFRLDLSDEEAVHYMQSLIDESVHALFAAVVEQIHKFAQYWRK
Chain of PI4K2B (PI4K2 beta) (Q8TCG2 whole entry): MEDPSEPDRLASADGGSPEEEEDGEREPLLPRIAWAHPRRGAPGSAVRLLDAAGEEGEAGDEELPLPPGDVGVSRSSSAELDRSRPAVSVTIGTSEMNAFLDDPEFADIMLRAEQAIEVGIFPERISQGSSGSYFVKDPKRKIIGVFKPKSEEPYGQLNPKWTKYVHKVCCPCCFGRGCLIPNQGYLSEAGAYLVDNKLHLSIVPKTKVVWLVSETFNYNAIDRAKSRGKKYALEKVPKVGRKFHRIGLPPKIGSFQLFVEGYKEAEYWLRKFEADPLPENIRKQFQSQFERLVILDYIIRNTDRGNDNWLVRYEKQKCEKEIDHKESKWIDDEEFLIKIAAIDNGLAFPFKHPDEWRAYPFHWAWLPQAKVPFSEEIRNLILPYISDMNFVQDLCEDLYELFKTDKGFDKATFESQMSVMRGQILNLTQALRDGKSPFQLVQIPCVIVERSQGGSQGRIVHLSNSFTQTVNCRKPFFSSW
Chain of PIK3CA E542K/PIK3R1 (p110 alpha E542K/p85 alpha) (P42336 whole entry E542K): as the sequence (P42336 whole entry E545K) above, with E542K, K545E counted along it
Chain of PIK3CA E542K/PIK3R1 (p110 alpha E542K/p85 alpha) (P27986 whole entry partner): as the sequence (P27986 whole entry partner) above

Take `O=C(CSc1nc2nccnc2c(=O)n1CCc1ccccc1)Nc1nccs1` [compound 1, PITCOIN1]: the inhibition (usually the drop in the measured response relative to a control, in per cent) at 1 µM on PI4K2B (PI4K2 beta) is 4%; on PI4KA (PI4K alpha), 1%; against PIK3C3 (hVPS34) it was -14%; in assay [1], 5%; in assay [2], 2%; in assay [3] it was 5%. Besides, the inhibition at 1 µM is -6% in [4]; 20% at PIK3CG (p110 gamma); 13% at PIP4K2A; 4% against PIP5K1A; 15% on PIP5K1C; 9% against SPHK2.

For `O=C(CSc1nc2nccnc2c(=O)n1CCc1ccccc1)Nc1nc(-c2cccc(O)c2)cs1` [compound 2, PITCOIN2], the inhibition at 1 µM at PI4K2B (PI4K2 beta) was -5%; against PI4KA (PI4K alpha), -9%; at PIK3C3 (hVPS34), 7%; in assay [1], 9%; in assay [2], 0%; in assay [3], -1%. Moreover, the inhibition at 1 µM was -10% in assay [4]; 16% against PIK3CG (p110 gamma); 2% against PIP4K2A; -6% against PIP5K1A; -8% against PIP5K1C; -1% on SPHK2.

On to `CS(=O)(=O)Nc1cccc(-c2csc(NC(=O)CSc3nc4nccnc4c(=O)n3CCc3ccccc3)n2)c1` [compound 3, PITCOIN3], for which the inhibition at 1 µM amounted to 8% on PI4K2B (PI4K2 beta); 5% against PI4KA (PI4K alpha); 2% on PIK3C3 (hVPS34); 14% in assay [1]; 4% in [2]; 17% in assay [3]. The inhibition at 1 µM is 5% in [4]; 9% against PIK3CG (p110 gamma); -15% against PIP4K2A; -7% against PIP5K1A; -4% on PIP5K1C; -5% against SPHK2.
